# Experimental data published in patent US9499534B2, “Thiazole-substituted aminopyrimidines as spleen tyrosine kinase inhibitors” (priority 2013, dated 2016).
# pIC50: −log10 of the molar value.
# Molecular target: recombinant human GST-SYK (Homo sapiens (Human), UniProt P43405)
# Test: Homogeneous Time-Resolved Fluorescence (HTRF) Assay for the Recombinant Human Syk Enzyme
# Type: biochemical
# Conditions: GST-SYK 5 pM, ATP 25 μM, biotinylated substrate peptide 250 nM, HTRF signal
# Description: Homogeneous Time-Resolved Fluorescence (HTRF) Assay for the Recombinant Human Syk Enzyme
# A recombinant GST-hSYK fusion protein was used to measure potency of compounds to inhibit human Syk activity. The recombinant human GST-SYK (Carna Biosciences #08-176) (5 pM final concentration) was incubated with various concentrations of the inhibitor diluted in DMSO (0.1% final concentration) for 10 minutes at room temperature in 15 mM Tris-HCl (pH 7.5), 0.01% tween 20, 2 mM DTT in 384 well plate format. To initiate the reaction the biotinylated substrate peptide (250 nM final concentration) that contains the phosphorylation site for Syk was added with magnesium (5 mM final concentration) and ATP (25 μM final concentration). Final volume of the reaction was 10 μL. Phosphorylation of the peptide was allowed to proceed for 45′ at room temperature. To quench the reaction and detect the phosphorylated product, 2 nM of a Europium-anti-phosphotyrosine antibody (Perkin Elmer #AD0161) and 70 nM SA-APC (Perkin-Elmer #CR130-100) were added together in 15 mM Tris pH 7.5, 40 mM EDTA, 0.01% tween 20. Final volume of the quenching solution was 10 μL.
# The resulting HTRF signal was measured after 30 minutes on an EnVision (Perkin-Elmer) reader using a time-resolved fluorescence protocol. Table A below lists activities as IC50 values (nM) for representative compounds of the invention.
row,Structure (SMILES),pIC50
1,"C[C@@H]1C[C@@](O)(c2ncc(-c3cc(Nc4nccc(C(F)(F)F)n4)cc(-c4cn[nH]c4)c3)s2)CC[C@@H]1C(N)=O (racemic) [Example 1.3, rel-(1S,2R,4R or S)-4-(5-(3-(1H-pyrazol-4-yl)-5-((4-(trifluoromethyl)pyrimidin-2-yl)amino)phenyl)thiazol-2-yl)-4-hydroxy-2-methylcyclohexanecarboxamide]",8.53
2,"CC1(C)C[C@](O)(c2ncc(-c3cc(Nc4nccc(C(F)(F)F)n4)cc(-c4cccc(C(=O)NC5CC5)c4)c3)s2)CC[C@H]1C(=O)O (single isomer, unassigned) [Example 2.9, (1R,4S or 1S,4R)-4-{5-[3′-(cyclopropylcarbamoyl)-5-{[4-(trifluoromethyl)pyrimidin-2-yl]amino}biphenyl-3-yl]-1,3-thiazol-2-yl}-4-hydroxy-2,2-dimethylcyclohexanecarboxylic acid]",8.56
3,"COc1ccc(-c2cc(Nc3nccc(C(F)(F)F)n3)cc(-c3cnc([C@]4(O)CC[C@@H](C(=O)O)C(C)(C)C4)s3)c2)cc1F (single isomer, unassigned) [Example 2.12, (1R,4S or 1S,4R)-4-[5-(3′-fluoro-4′-methoxy-5-{[4-(trifluoromethyl)pyrimidin-2-yl]amino}biphenyl-3-yl)-1,3-thiazol-2-yl]-4-hydroxy-2,2-dimethylcyclohexanecarboxylic acid]",7.45
4,"CC1(C)C[C@](O)(c2ncc(-c3cc(Nc4nccc(C(F)(F)F)n4)cc(-c4ccccc4Cl)c3)s2)CC[C@H]1C(=O)O (single isomer, unassigned) [Example 2.18, (1R,4S or 1S,4R)-4-[5-(2′-chloro-5-{[4-(trifluoromethyl)pyrimidin-2-yl]amino}biphenyl-3-yl)-1,3-thiazol-2-yl]-4-hydroxy-2,2-dimethylcyclohexanecarboxylic acid]",7.43
5,"Cc1ccccc1-c1cc(Nc2nccc(C(F)(F)F)n2)cc(-c2cnc([C@]3(O)CC[C@@H](C(=O)O)C(C)(C)C3)s2)c1 (single isomer, unassigned) [Example 2.20, (1R,4S or 1S,4R)-4-hydroxy-2,2-dimethyl-4-[5-(2′-methyl-5-{[4-(trifluoromethyl)pyrimidin-2-yl]amino}biphenyl-3-yl)-1,3-thiazol-2-yl]cyclohexanecarboxylic acid]",7.15
6,"CC1(C)C[C@](O)(c2ncc(-c3cc(Nc4nccc(C(F)(F)F)n4)cc(-c4cccc(F)c4F)c3)s2)CC[C@H]1C(=O)O (single isomer, unassigned) [Example 2.14, (1R,4S or 1S,4R)-4-[5-(2′,3′-difluoro-5-{[4-(trifluoromethyl)pyrimidin-2-yl]amino}biphenyl-3-yl)-1,3-thiazol-2-yl]-4-hydroxy-2,2-dimethylcyclohexanecarboxylic acid]",7.89
7,"C[S+]([O-])c1ccccc1-c1cc(Nc2nccc(C(F)(F)F)n2)cc(-c2cnc([C@]3(O)CC[C@@H](C(=O)O)C(C)(C)C3)s2)c1 (single isomer, unassigned) [Example 2.17, (1R,4S or 1S,4R)-4-hydroxy-2,2-dimethyl-4-{5-[2′-(methylsulfinyl)-5-{[4-(trifluoromethyl)pyrimidin-2-yl]amino}biphenyl-3-yl]-1,3-thiazol-2-yl}cyclohexanecarboxylic acid]",7.81
8,"C/C=C(\C)c1cc(Nc2nccc(C(F)(F)F)n2)cc(-c2cnc([C@]3(O)CC[C@@H](C(=O)O)C(C)(C)C3)s2)c1 (single isomer, unassigned) [Example 2.28, (1R,4S or 1S,4R)-4-hydroxy-2,2-dimethyl-4-[5-(3-[(1E)-1-methylprop-1-en-1-yl]-5-{[4-(trifluoromethyl)pyrimidin-2-yl]amino}phenyl)-1,3-thiazol-2-yl]cyclohexanecarboxylic acid]",8.56
9,"CC1(C)C[C@](O)(c2ncc(-c3cc(Nc4nccc(C(F)(F)F)n4)cc(-c4ccccc4F)c3)s2)CC[C@H]1C(=O)O (single isomer, unassigned) [Example 2.25, (1R,4S or 1S,4R)-4-[5-(2′-fluoro-5-{[4-(trifluoromethyl)pyrimidin-2-yl]amino}biphenyl-3-yl)-1,3-thiazol-2-yl]-4-hydroxy-2,2-dimethylcyclohexanecarboxylic acid]",7.45
10,"N#Cc1cc(Nc2nccc(C(F)(F)F)n2)cc(-c2cnc(C3(O)CCC(C(=O)O)CC3)s2)c1 (stereo not drawn) [Example 1.7, cis 4-[5-(3-cyano-5-{[4-(trifluoromethyl)pyrimidin-2-yl]amino}phenyl)-1,3-thiazol-2-yl]-4-hydroxycyclohexanecarboxylic acid]",8.07

# Second part, the compound after the results:
row,pIC50,Structure (SMILES)
1,6.54,"CC1(C)C[C@](O)(c2ncc(-c3cc(Nc4nccc(C(F)(F)F)n4)cc(-c4cnn(C(C)(C)C)c4)c3)s2)CC[C@H]1C(=O)O (single isomer, unassigned) [Example 2.2, (1R,4S or 1S,4R)-4-{5-[3-(1-tert-butyl-1H-pyrazol-4-yl)-5-{[4-(trifluoromethyl)pyrimidin-2-yl]amino}phenyl]-1,3-thiazol-2-yl}-4-hydroxy-2,2-dimethylcyclohexanecarboxylic acid]"
2,8.40,"C=C(C)c1cc(Nc2nccc(C(F)(F)F)n2)cc(-c2cnc([C@]3(O)CC[C@@H](C(=O)O)C(C)(C)C3)s2)c1 (single isomer, unassigned) [Example 2.30, (1R,4S or 1S,4R)-4-hydroxy-2,2-dimethyl-4-{5-[3-(1-methylethenyl)-5-{[4-(trifluoromethyl)pyrimidin-2-yl]amino}phenyl]-1,3-thiazol-2-yl}cyclohexanecarboxylic acid]"
3,6.83,"CC(C)n1cc(-c2cc(Nc3nccc(C(F)(F)F)n3)cc(-c3cnc([C@]4(O)CC[C@@H](C(=O)O)C(C)(C)C4)s3)c2)cn1 (single isomer, unassigned) [Example 2.3, (1R,4S or 1S,4R)-4-hydroxy-2,2-dimethyl-4-[5-(3-[1-(1-methylethyl)-1H-pyrazol-4-yl]-5-{[4-(trifluoromethyl)pyrimidin-2-yl]amino}phenyl)-1,3-thiazol-2-yl]cyclohexanecarboxylic acid]"
4,7.20,"CCn1cc(-c2cc(Nc3nccc(C(F)(F)F)n3)cc(-c3cnc([C@]4(O)CC[C@@H](C(=O)O)C(C)(C)C4)s3)c2)cn1 (single isomer, unassigned) [Example 2.4, (1R,4S or 1S,4R)-4-{5-3-(1-ethyl-1H-pyrazol-4-yl)-5-{[4-(trifluoromethyl)pyrimidin-2-yl]amino}phenyl]-1,3-thiazol-2-yl}-4-hydroxy-2,2-dimethylcyclohexanecarboxylic acid]"
5,8.62,"CC1(C)C[C@](O)(c2ncc(-c3cc(Nc4nccc(C(F)(F)F)n4)cc(-c4cn[nH]c4)c3)s2)CC[C@H]1C(=O)O (single isomer, unassigned) [Example 2.10, (1R,4S or 1S,4R)-4-hydroxy-2,2-dimethyl-4-{5-[3-(1H-pyrazol-4-yl)-5-{[4-(trifluoromethyl)pyrimidin-2-yl]amino}phenyl]-1,3-thiazol-2-yl}cyclohexanecarboxylic acid]"
6,7.91,"CC1(C)C[C@](O)(c2ncc(-c3cc(Nc4nccc(C(F)(F)F)n4)cc(-c4cccs4)c3)s2)CC[C@H]1C(=O)O (single isomer, unassigned) [Example 3.2, (1R,4S or 1S,4R)-4-hydroxy-2,2-dimethyl-4-[5-(3-thiophen-2-yl-5-{[4-(trifluoromethyl)pyrimidin-2-yl]amino}phenyl)-1,3-thiazol-2-yl]cyclohexanecarboxylic acid]"
7,7.99,"Cc1ccsc1-c1cc(Nc2nccc(C(F)(F)F)n2)cc(-c2cnc([C@]3(O)CC[C@@H](C(=O)O)C(C)(C)C3)s2)c1 (single isomer, unassigned) [Example 2.23, (1R,4S or 1S,4R)-4-hydroxy-2,2-dimethyl-4-{5-[3-(3-methylthiophen-2-yl)-5-{[4-(trifluoromethyl)pyrimidin-2-yl]amino}phenyl]-1,3-thiazol-2-yl}cyclohexanecarboxylic acid]"
8,7.93,"CC1(C)C[C@](O)(c2ncc(-c3cc(Nc4nccc(C(F)(F)F)n4)cc(-c4ccsc4)c3)s2)CC[C@H]1C(=O)O (single isomer, unassigned) [Example 2.8, (1R,4S or 1S,4R)-4-hydroxy-2,2-dimethyl-4-[5-(3-thiophen-3-yl-5-{[4-(trifluoromethyl)pyrimidin-2-yl]amino}phenyl)-1,3-thiazol-2-yl]cyclohexanecarboxylic acid]"
9,8.24,"CC1(C)CC(O)(c2ncc(-c3cc(C#N)cc(Nc4nccc(C(F)(F)F)n4)c3)s2)CCC1C(=O)O (single isomer, unassigned) [Example 1.8, (1R,4S or 1S,4R)-4-[5-(3-cyano-5-{[4-(trifluoromethyl)pyrimidin-2-yl]amino}phenyl)-1,3-thiazol-2-yl]-4-hydroxy-2,2-dimethylcyclohexanecarboxylic acid]"
10,8.29,"CC1(C)CC(O)(c2ncc(-c3cc(Nc4nccc(C(F)(F)F)n4)cc(S(C)(=O)=O)c3)s2)CCC1C(=O)O (single isomer, unassigned) [Example 1.9, (1R,4S or 1S,4R)-4-hydroxy-2,2-dimethyl-4-{5-[3-(methylsulfonyl)-5-{[4-(trifluoromethyl)pyrimidin-2-yl]amino}phenyl]-1,3-thiazol-2-yl}cyclohexanecarboxylic acid]"
